# In ChEMBL document CHEMBL5696442, “Discovery of type II inhibitors of TGFβ-activated kinase 1 (TAK1) and mitogen-activated protein kinase kinase kinase kinase 2 (MAP4K2)” (J Med Chem, 2015):
# Activity calls are given as the source filed them. The calls are words filed in the database; no cut-off is given here.
# Columns and labels:
# [1] = biological target: T1, Phosphatidylinositol 5-phosphate 4-kinase type-2 beta (Homo sapiens) (UniProt P78356); test: Inhibition of PIP4K2B ATP labeling site harbouring AKDLPTFKDNDFLNEGQK in human Huh-7 cell lysate at 1 uM by KiNativ Profiling analysis relative to control; format: subcellular
# T1 sequence (whole entry): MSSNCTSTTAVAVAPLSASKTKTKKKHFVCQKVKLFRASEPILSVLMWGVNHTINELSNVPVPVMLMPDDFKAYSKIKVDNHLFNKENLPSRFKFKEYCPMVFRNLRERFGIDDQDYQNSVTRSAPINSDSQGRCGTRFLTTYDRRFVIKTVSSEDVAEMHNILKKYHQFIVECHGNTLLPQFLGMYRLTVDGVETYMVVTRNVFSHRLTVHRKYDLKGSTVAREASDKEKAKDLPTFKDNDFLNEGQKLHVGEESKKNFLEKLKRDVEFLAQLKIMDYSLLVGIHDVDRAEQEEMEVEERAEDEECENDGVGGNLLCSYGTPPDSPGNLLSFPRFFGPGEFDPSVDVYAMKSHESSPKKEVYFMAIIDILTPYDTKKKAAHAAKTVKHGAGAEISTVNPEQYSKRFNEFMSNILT
# [2] = biological target: DNA-dependent protein kinase catalytic subunit (Homo sapiens) (UniProt P78527); test: Inhibition of PRKDC ATP labeling site harbouring KGGSWIQEINVAEKNWYPR in human Huh-7 cells at 1 uM by KiNativ Profiling analysis relative to control; format: cell-based
# [3] = biological target: Rho-associated protein kinase 2 (Homo sapiens) (UniProt O75116); test: Inhibition of ROCK2 Lys2 labeling site in human A-375 cells at 0.05 uM by KiNativ Profiling analysis relative to control; format: cell-based
# [4] = Inhibition of […] K2 labeling site in human Huh-7 cells at 10 uM by KiNativ Profiling analysis relative to control; conditions: condition cancer
# [5] = biological target: T2, Serine/threonine-protein kinase TAO2 (Homo sapiens) (UniProt Q9UL54); test: Inhibition of TAO2 K2 labeling site in human Huh-7 cells at 10 uM by KiNativ Profiling analysis relative to control; format: cell-based
# T2 sequence (whole entry): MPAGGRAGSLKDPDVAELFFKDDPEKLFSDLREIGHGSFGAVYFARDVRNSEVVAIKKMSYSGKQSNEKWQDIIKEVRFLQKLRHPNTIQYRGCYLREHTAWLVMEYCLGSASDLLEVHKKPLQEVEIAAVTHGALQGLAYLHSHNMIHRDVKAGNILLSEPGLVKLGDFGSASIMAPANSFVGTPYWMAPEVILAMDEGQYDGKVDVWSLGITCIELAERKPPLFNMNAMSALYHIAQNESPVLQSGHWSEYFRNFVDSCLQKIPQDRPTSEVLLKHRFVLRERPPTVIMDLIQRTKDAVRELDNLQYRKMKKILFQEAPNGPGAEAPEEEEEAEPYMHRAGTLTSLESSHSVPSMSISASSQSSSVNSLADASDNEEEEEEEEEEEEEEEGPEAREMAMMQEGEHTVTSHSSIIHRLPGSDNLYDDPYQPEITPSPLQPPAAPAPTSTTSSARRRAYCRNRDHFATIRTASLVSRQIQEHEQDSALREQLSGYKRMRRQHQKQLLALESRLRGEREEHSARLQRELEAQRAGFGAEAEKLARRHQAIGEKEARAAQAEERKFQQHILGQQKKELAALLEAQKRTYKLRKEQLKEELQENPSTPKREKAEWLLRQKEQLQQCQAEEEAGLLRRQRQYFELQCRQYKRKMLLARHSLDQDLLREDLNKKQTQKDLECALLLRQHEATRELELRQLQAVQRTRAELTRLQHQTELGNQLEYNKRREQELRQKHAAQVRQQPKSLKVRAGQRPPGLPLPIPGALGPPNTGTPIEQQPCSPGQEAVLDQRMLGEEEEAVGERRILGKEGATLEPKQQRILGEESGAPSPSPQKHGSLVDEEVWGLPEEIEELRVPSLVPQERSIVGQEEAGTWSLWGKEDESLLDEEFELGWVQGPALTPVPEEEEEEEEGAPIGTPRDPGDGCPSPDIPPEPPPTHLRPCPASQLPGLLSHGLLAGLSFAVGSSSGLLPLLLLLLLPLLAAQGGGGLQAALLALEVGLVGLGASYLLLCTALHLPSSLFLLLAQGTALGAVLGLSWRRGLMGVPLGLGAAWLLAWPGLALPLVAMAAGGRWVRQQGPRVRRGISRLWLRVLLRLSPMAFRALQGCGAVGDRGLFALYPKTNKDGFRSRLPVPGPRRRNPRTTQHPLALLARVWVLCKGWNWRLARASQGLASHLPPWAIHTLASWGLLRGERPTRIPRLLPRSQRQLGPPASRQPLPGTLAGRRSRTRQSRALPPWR
# [6] = biological target: Mitogen-activated protein kinase 7 (Homo sapiens) (UniProt Q13164); test: Inhibition of ERK5 (unknown origin) at 10 uM by Ambit Kinomescan binding assay
# [7] = biological target: Tyrosine-protein kinase Fyn (Homo sapiens) (UniProt P06241); test: Inhibition of FYN (unknown origin) at 10 uM by Ambit Kinomescan binding assay relative to control; values are per cent of control
# [8] = biological target: Activin receptor type-1 (Homo sapiens) (UniProt Q04771); test: Inhibition of ACVR1 (unknown origin) at 10 uM by Ambit Kinomescan binding assay
# [9] = biological target: Cyclin-dependent kinase 8/19 (Homo sapiens) (UniProt P49336+Q9BWU1); test: Inhibition of CDK8/11 K2 labeling site in human Huh-7 cells at 1 uM by KiNativ Profiling analysis relative to control; format: cell-based
# [10] = Inhibition of KHS1 K2 labeling site in human Huh-7 cells at 10 uM by KiNativ Profiling analysis relative to control; conditions: condition cancer
# [11] = system: Epidermal growth factor receptor (Homo sapiens), P00533 [UNDEFINED MUTATION]; conditions: dose 1.0 µM
# [12] = biological target: Mitogen-activated protein kinase 14 (Homo sapiens, UniProt Q16539); test: Inhibition of p38 alpha Lys2 labeling site in human A-375 cells at 5 uM by KiNativ Profiling analysis relative to control; format: cell-based
# [13] = biological target: cAMP-dependent protein kinase catalytic subunit PRKX (Homo sapiens) (UniProt P51817); test: Inhibition of PRKX (unknown origin) at 1 uM by Ambit Kinomescan binding assay relative to control
# [14] = biological target: Serine/threonine-protein kinase 4 (Homo sapiens) (UniProt Q13043); test: Inhibition of MST1 Lys1 labeling site harbouring ETGQIVAIKQVPVESDLQEIIK in human A-375 cells at 5 uM by KiNativ Profiling analysis relative to control
# Serine/threonine-protein kinase 4 (Homo sapiens), sequence (Q13043 whole entry, looked up): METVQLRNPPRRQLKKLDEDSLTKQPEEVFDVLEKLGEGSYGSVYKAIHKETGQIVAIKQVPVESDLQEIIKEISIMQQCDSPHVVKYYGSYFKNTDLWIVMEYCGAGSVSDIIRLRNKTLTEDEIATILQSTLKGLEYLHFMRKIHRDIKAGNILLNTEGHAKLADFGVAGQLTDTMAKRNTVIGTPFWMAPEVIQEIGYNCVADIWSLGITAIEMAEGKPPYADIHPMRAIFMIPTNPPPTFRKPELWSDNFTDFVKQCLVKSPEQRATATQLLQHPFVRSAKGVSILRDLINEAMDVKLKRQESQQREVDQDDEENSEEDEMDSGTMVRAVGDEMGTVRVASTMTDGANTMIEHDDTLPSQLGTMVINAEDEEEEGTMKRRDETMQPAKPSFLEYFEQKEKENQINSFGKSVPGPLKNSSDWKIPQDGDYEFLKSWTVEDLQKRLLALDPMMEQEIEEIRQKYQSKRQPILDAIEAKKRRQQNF
# Activin receptor type-1 (Homo sapiens), sequence (Q04771 whole entry): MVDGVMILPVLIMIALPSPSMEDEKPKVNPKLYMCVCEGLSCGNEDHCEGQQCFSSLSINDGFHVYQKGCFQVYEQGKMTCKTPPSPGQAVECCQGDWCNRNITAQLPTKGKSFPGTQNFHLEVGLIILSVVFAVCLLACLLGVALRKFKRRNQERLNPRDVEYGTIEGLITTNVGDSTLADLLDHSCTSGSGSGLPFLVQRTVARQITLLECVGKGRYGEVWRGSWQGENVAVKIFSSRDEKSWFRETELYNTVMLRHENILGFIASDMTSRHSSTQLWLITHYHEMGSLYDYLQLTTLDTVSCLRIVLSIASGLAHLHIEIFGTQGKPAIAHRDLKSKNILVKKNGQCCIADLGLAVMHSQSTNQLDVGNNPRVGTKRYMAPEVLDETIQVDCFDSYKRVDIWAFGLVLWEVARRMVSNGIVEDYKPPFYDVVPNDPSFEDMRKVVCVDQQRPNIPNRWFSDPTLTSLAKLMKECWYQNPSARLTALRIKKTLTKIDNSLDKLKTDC
# DNA-dependent protein kinase catalytic subunit (Homo sapiens), sequence (P78527 whole entry): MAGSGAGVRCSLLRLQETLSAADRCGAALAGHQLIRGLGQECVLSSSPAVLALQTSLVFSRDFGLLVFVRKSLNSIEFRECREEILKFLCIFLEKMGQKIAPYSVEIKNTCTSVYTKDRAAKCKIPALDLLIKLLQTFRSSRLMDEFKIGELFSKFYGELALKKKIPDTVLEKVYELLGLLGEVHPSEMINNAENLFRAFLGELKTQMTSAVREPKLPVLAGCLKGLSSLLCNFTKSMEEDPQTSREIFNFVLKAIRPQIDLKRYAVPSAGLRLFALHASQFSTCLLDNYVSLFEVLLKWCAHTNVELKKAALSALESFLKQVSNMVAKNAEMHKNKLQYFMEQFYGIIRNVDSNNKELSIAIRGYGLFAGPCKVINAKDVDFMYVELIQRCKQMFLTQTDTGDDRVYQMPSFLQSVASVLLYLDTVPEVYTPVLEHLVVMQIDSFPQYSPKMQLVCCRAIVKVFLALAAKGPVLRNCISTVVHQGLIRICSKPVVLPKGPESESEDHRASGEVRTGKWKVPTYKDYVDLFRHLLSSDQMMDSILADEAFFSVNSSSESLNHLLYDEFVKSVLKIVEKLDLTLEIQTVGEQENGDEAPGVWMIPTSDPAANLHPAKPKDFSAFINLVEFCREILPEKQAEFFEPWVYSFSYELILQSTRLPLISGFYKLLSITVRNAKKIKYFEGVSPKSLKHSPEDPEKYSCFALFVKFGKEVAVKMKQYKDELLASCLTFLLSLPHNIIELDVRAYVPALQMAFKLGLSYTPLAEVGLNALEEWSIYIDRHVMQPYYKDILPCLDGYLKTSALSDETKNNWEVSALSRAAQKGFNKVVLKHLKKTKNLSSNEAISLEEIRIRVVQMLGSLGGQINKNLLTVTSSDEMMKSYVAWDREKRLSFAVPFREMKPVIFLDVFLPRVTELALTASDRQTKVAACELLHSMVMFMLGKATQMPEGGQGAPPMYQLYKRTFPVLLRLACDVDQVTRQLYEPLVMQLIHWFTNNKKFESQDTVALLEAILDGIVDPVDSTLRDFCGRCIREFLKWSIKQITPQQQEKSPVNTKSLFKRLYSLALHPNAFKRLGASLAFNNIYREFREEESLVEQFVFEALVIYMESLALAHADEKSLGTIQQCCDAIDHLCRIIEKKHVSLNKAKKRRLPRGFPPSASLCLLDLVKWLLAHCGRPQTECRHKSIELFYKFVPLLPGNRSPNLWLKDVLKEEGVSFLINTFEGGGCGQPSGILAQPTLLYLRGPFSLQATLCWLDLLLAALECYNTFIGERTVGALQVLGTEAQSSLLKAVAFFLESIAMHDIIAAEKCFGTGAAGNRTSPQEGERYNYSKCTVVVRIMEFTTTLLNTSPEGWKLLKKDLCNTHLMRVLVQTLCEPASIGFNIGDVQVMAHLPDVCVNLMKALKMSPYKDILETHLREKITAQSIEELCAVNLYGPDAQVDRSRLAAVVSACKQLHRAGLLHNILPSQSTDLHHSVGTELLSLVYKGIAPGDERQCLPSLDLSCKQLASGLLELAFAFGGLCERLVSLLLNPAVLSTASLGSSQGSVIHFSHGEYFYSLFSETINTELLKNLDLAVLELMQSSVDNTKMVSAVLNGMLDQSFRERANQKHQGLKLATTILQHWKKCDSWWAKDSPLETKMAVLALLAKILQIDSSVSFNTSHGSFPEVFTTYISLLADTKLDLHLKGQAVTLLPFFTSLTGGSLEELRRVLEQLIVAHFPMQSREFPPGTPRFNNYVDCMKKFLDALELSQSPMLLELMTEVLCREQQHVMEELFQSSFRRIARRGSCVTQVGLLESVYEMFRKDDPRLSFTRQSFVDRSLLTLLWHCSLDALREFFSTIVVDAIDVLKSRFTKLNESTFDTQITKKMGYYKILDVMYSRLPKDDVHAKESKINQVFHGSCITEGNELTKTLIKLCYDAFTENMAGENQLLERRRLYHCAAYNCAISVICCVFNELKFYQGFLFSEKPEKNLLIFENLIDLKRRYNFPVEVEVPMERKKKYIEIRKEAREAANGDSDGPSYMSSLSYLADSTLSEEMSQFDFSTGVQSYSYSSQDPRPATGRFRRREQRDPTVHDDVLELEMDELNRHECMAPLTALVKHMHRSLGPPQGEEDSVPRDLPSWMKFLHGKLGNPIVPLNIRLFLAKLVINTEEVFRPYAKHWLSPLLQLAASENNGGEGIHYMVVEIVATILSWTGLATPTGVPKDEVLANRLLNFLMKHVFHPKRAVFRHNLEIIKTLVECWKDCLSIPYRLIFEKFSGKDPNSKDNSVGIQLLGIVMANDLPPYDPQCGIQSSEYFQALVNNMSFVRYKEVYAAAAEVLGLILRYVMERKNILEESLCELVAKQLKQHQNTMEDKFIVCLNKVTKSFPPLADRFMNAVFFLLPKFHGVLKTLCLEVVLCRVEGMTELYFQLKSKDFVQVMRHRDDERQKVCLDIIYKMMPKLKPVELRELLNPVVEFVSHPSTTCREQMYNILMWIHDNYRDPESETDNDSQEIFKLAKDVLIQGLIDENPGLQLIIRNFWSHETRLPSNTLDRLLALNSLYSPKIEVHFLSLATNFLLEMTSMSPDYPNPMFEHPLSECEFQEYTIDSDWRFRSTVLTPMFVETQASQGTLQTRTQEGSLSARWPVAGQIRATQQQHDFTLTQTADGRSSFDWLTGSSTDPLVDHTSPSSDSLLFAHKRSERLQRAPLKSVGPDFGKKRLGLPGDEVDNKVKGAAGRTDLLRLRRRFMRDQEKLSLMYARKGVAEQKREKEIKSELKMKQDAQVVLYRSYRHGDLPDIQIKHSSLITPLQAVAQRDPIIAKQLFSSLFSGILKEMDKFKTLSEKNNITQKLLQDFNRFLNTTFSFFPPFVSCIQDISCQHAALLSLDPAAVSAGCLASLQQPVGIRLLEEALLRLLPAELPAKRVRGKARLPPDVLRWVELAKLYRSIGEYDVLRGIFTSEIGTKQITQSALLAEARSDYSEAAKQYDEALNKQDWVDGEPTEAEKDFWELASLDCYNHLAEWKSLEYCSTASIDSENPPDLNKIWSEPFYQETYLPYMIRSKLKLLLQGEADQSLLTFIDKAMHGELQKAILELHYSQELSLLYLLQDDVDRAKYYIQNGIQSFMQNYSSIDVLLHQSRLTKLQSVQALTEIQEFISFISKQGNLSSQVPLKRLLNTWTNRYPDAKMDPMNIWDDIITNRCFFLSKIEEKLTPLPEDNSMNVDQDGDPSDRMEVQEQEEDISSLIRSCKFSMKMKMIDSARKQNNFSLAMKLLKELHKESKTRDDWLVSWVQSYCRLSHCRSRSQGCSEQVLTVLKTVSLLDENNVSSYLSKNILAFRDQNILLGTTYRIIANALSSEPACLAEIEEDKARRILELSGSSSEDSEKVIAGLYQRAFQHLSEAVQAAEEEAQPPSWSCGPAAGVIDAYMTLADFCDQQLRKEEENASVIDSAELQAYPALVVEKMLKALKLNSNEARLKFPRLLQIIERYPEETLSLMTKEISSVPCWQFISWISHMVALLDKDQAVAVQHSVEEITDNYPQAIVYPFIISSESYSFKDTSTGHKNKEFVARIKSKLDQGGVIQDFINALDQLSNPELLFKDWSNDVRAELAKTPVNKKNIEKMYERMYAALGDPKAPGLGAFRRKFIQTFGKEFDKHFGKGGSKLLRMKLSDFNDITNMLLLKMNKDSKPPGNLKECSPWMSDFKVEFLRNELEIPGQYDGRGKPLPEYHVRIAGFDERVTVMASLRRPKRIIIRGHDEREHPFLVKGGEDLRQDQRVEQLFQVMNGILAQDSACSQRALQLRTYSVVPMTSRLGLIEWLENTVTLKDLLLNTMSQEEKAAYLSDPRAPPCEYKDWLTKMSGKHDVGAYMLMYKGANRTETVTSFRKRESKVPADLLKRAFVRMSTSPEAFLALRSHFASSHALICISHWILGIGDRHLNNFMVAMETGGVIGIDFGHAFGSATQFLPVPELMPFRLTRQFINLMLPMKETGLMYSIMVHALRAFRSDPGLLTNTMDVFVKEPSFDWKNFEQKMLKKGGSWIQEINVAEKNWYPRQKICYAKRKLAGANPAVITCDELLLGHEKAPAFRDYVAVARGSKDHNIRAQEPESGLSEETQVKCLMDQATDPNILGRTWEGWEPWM
structure (smiles),measurement,setting,value
CNc1cc(Oc2cc(C(=O)Nc3cc(N4CCN(C)CC4)cc(C(F)(F)F)c3)ccc2C)ncn1,inhibition,[1],-5.5%
CCN1CCN(Cc2ccc(NC(=O)c3ccc(C)c(Oc4ccnc5[nH]ccc45)c3)cc2C(F)(F)F)CC1,inhibition,[2],30.8%
same,inhibition,[3],6%
same,inhibition at 10 µM,[4],-6.7%
same,inhibition,[5],28.6%
same,inhibition,[6],inactive
same,percent of control,[7],1.6%
same,inhibition,[8],inactive
same,inhibition,[9],-4.7%
same,inhibition at 10 µM,[10],0.3%
CCN1CCN(Cc2ccc(NC(=O)c3ccc(C)c(/C=C/c4cnc5[nH]ccc5c4OC)c3)cc2C(F)(F)F)CC1,inhibition,[11],0.5%
same,inhibition,[12],52.4%
same,inhibition,[13],57%
same,inhibition,[14],27.6%
